# Reference: article PMC9106665 (Communications Biology, 2022)
# Substitutions are numbered along the chain they refer to. Where two headings read alike, the source gives them in different places.
# What was measured:
# [1] = tested on: E. coli JW0451 acrB mutant strain; assay: microbe, parasite or virus in culture; assay type: cell-based; settings: for MIC: w/o SMX, 80% inhibition of growth, 18 to 20 hours, 37°C
# Experimental: (§1) Preparation, handling of cultures and the antibiotic susceptibility testing was performed according to CLSI guidelines. […] The compounds at the highest concentrations alone and paired with Sulfamethoxazole (1:19 w/w ratio) were then added to the first well before being serially diluted (2-fold) throughout the plate, leaving the last well with broth only (negative growth control). Next, 50 μl of the inoculum was added to each well.
# [2] = tested on: E. coli BL21(DE3) strain overexpressing EcDHFR wt; assay: Antibacterial activity (MIC); assay type: cell-based; settings: Escherichia coli
# [3] = tested on: E. coli BL21(DE3) strain overexpressing DfrA1; assay: Antibacterial activity (MIC); assay type: cell-based; settings: Escherichia coli
# [4] = tested on: E. coli BL21(DE3) strain overexpressing DfrA5; assay: Antibacterial activity (MIC); assay type: cell-based; settings: Escherichia coli
# [5] = molecular target: T1, EcDHFR D27E (Escherichia coli, UniProt P0ABQ4, D27E); assay: Steady-state kinetic measurements; assay type: biochemical; settings: varied substrate 1 to 200 µM, 25 °C
# T1 construct: using E. coli DHFR template previously synthesized by GeneScript; made in house; host or cells: E. coli BL21(DE3)
# T1 sequence (P0ABQ4 1-159 D27E): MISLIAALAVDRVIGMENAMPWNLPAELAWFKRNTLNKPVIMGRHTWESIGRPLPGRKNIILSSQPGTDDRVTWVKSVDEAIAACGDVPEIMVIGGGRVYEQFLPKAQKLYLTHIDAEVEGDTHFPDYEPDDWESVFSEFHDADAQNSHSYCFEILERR
# Text: (§2) using a nonlinear regression method in GraphPad Prism 9.2.0 software. To determine the turnover number (kcat) using the same model, the enzyme concentration (based on the protein concentration determined by Bradford assay) was constrained to a constant value and analyzed by the following equation (Eq. 3):3 Y=Et×kcat×X/(Km+X)
# [6] = molecular target: T2, EcDHFR D27E/L28Q (Escherichia coli, UniProt P0ABQ4, D27E/L28Q); assay: Steady-state kinetic measurements; assay type: biochemical; settings: varied substrate 1 to 200 µM, 25 °C
# T2 construct: using E. coli DHFR template previously synthesized by GeneScript; made in house; host or cells: E. coli BL21(DE3)
# T2 sequence (P0ABQ4 1-159 D27E/L28Q): T1 sequence (P0ABQ4 1-159 D27E) with L28Q
# Text: as §2
# [7] = molecular target: T3, EcDHFR L28Q (Escherichia coli, UniProt P0ABQ4, L28Q); assay: Steady-state kinetic measurements; assay type: biochemical; settings: varied substrate 1 to 200 µM, 25 °C
# T3 construct: using E. coli DHFR template previously synthesized by GeneScript; made in house; host or cells: E. coli BL21(DE3)
# T3 sequence (P0ABQ4 1-159 L28Q): T1 sequence (P0ABQ4 1-159 D27E) with E27D, L28Q
# Text: as §2
# [8] = tested on: NC(=O)C1=CN([C@H]2O[C@H](COP(=O)(O)OP(=O)(O)OC[C@H]3O[C@@H](n4cnc5c(N)ncnc54)[C@H](OP(=O)(O)O)[C@@H]3O)[C@@H](O)[C@H]2O)C=CC1; assay: Steady-state kinetic measurements; assay type: biochemical, Escherichia coli; settings: other: varied substrate 1 to 200 µM, 25 °C
# [9] = molecular target: T4, E. coli DHFR (EcDHFR) (Escherichia coli, UniProt P0ABQ4); assay: biochemical
# T4 construct: E. coli DHFR gene (UniProtKB:P0ABQ4) and dfrA1 gene (UniProtKB:A4GRC7) were synthesized and cloned in pET-41a (+) vector; made in house; host or cells: E. coli BL21(DE3)
# Experimental: (§3) The assay was performed at room temperature using the Shimadzu UV/visible spectrophotometer. A standard reaction buffer contained 20 mM TES, pH 7.0, 50 mM KCl, 10 mM β-mercapthoethanol, 0.5 mM EDTA, and 1 mg/ml BSA. […] All measurements were performed in triplicate, from at least two independent experiments.
# [10] = molecular target: T5, DfrA5 (Escherichia coli, UniProt P11731); assay: biochemical; set-up: species or system E. coli
# Experimental: as §3
# [11] = molecular target: T1, EcDHFR D27E; assay: Enzyme inhibition assay (NADPH oxidation, 340 nm); assay type: biochemical
# Experimental: as §3
# [12] = molecular target: T2, EcDHFR D27E/L28Q; assay: Enzyme inhibition assay (NADPH oxidation, 340 nm); assay type: biochemical
# Experimental: as §3
# [13] = molecular target: T3, EcDHFR L28Q; assay: Enzyme inhibition assay (NADPH oxidation, 340 nm); assay type: biochemical
# Experimental: as §3
# [14] = tested on: DfrA1 and DfrA5; assay type: biochemical, E. coli; settings: range over DfrA1 and DfrA5
# Experimental: as §3
# [15] = molecular target: T6, EcDHFR (Escherichia coli, UniProt P0ABQ4); assay type: binding
# T6 construct: E. coli DHFR gene (UniProtKB:P0ABQ4) and dfrA1 gene (UniProtKB:A4GRC7) were synthesized and cloned in pET-41a (+) vector; made in house; host or cells: E. coli BL21(DE3)
# Experimental: (§4) In all, 200 µg of purified enzyme was preincubated for 18 h without and with a 10× molar excess of the ligand(s) (NADPH, TMP or PLA) in 20 mM Hepes 7.5, 100 mM KCl, 5% glycerol, ±2.0% DMSO and 2 mM DTT buffer. […] Changes in intrinsic fluorescence intensity (measured ratio of absorbance at 350 nm over 330 nm) from tryptophan residues were used to calculate derivatives using the evaluation features provided by the Tycho instrument.
# [16] = molecular target: T7, DfrA1 (Escherichia coli, UniProt P00382); assay type: binding, E. coli
# T7 construct: dfrA1 gene (UniProtKB:A4GRC7) were synthesized and cloned in pET-41a (+) vector; made in house; host or cells: E. coli BL21(DE3)
# T7 sequence (P00382 1-157): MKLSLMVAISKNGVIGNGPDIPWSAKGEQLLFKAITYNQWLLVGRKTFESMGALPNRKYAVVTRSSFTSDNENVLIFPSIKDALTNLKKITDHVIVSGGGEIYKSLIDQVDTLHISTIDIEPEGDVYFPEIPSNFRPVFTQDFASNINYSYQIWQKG
# Experimental: as §4
# [17] = tested on: E. coli BW25113; assay: microbe, parasite or virus in culture; assay type: cell-based; settings: for MIC: Escherichia coli, 80% inhibition of growth
# Experimental: as §1
# [18] = molecular target: T5, DfrA5; assay type: binding, E. coli; set-up: E. coli dfrA5 gene (UniProtKB:A0A4Y6L037) was synthesized and cloned in pET-24a (+) vector with the same restriction sites; 6xHis tag (C); made in house; host or cells: E. coli BL21(DE3)
# Experimental: as §4, with “instrument. The inflection temperature (Ti) as a marker of protein structural integrity was determined by the first derivative of the signal (ratio of 350 nm/330 nm).” for “instrument.”
# [19] = tested on: NC(=O)C1=CN([C@H]2O[C@H](COP(=O)(O)OP(=O)(O)OC[C@H]3O[C@@H](n4cnc5c(N)ncnc54)[C@H](OP(=O)(O)O)[C@@H]3O)[C@@H](O)[C@H]2O)C=CC1; assay: purified protein, by the assay type; assay type: biochemical, E. coli; settings: other: varied substrate 1 to 200 µM, 25 °C
# Text: as §2
# [20] = tested on: Nc1nc2c(c(=O)[nH]1)N=C(CNc1ccc(C(=O)N[C@@H](CCC(=O)O)C(=O)O)cc1)CN2; assay: purified protein, by the assay type; assay type: biochemical, E. coli; settings: other: varied substrate 1 to 200 µM, 25 °C
# Text: as §2
# [21] = binary complex, 10× molar excess of ligand
molecule,measurement,setting,value
"COc1cc(Cc2cnc(N)nc2N)cc(OC)c1OC [Trimethoprim, reference compound]",MIC,[1]; Escherichia coli,0.04 µg/mL
same,MIC,[2]; w/ SMX (1:19),0.078 µg/mL
same,MIC,[2]; w/o SMX,0.625 µg/mL
same,MIC,[3]; w/ SMX (1:19),> 20 µg/mL
same,MIC,[3]; w/o SMX,> 20 µg/mL
same,MIC,[4]; w/ SMX (1:19),> 20 µg/mL
same,MIC,[4]; w/o SMX,> 20 µg/mL
"Nc1nc2c(c(=O)[nH]1)N=C(CNc1ccc(C(=O)N[C@@H](CCC(=O)O)C(=O)O)cc1)CN2 [DHF, dihydrofolate]",Km,[5],15.4 ± 2.1 µM
same,Km,[6],56.6 ± 8 µM
same,Km,[7],5.2 ± 1 µM
EcDHFR (Escherichia coli K-12),Km,[8],5.8 ± 0.8 µM
same,kcat/Km,[8],600000 ± 70000 M⁻¹ s⁻¹
CCc1nc(N)nc(N)c1C#CC(C)c1cc2c(c(-c3ccc(CN)cc3)c1)OCO2 (centres unmarked) [UCP1223],Ki,[9],1.58 ± 0.26 nM
same,Ki,[10],16.8 ± 0.29 nM
same,Ki,[11],12.8 ± 0.56 nM
same,fold increase in Ki over EcDHFR,[11]; D27E substitution,8 fold
same,Ki,[12],187 ± 5.5 nM
same,fold loss in affinities relative to EcDHFR,[12]; combinatorial mutant D27E/L28Q,118 fold
same,Ki,[13],7.37 ± 0.72 nM
same,fold loss of activity against DfrA1 and DfrA5 compared to EcDHFR,[14],10–14 fold
same,Ti 1,[15]; [21],68.5 ± 1.4 °C
same,Ti 2,[15]; [21],80.8 ± 0.2 °C
same,Δ1 (Ti shift vs apo),[15]; [21],18.9 °C
same,Δ2 (Ti shift vs apo),[15]; [21],20.6 °C
same,Ti 1,"[15]; ternary complex, +NADPH",78.9 ± 2.4 °C
same,Ti 2,"[15]; ternary complex, +NADPH",88.3 ± 0.5 °C
same,Δ1 (Ti shift vs apo),"[15]; ternary complex, +NADPH",29.3 °C
same,Ti,[16]; [21],58.5 ± 0.1 °C
same,Δ (Ti shift vs apo),[16]; [21],8.7 °C
same,Ti,"[16]; ternary complex, +NADPH",71.2 ± 3.1 °C
same,Fold difference in MIC,[17]; BW25113 w/o SMX vs w/ SMX,32
same,MIC,"[17]; BW25113, w/ SMX (1:19)",0.625 µg/mL
same,MIC,"[17]; BW25113, w/o SMX, 18 to 20 hours, 37°C",20 µg/mL
same,Fold difference in MIC,[1]; BW25113 w/o SMX vs JW0451 w/o SMX,32
same,MIC,[1]; Escherichia coli,0.625 µg/mL
same,MIC,[1],1.25 µg/mL
same,MIC,[2]; w/ SMX (1:19),1.25 µg/mL
same,MIC,[2]; w/o SMX,20 µg/mL
same,MIC,[3]; w/ SMX (1:19),20 µg/mL
same,MIC,[3]; w/o SMX,> 20 µg/mL
same,MIC,[4]; w/ SMX (1:19),10 µg/mL
same,MIC,[4]; w/o SMX,> 20 µg/mL
same,Ti,[18]; [21],67.3 ± 1.0 °C
same,Δ (Ti shift vs apo),[18]; [21],1.0 °C
same,Ti,"[18]; ternary complex, +NADPH",88.5 ± 0.2 °C
"COc1cc(Cc2cnc(N)nc2N)c2c(c1OC)OC(C1CC1)C=C2 (centres unmarked) [Iclaprim, reference compound]",Ki,[10],99 ± 13.9 nM
DfrA5 (Escherichia coli),Km,[19],19.9 ± 6.1 µM
same,kcat,[19],34.3 ± 3.3 s⁻¹
same,kcat/Km,[19],1.7e+06 ± 500000 M⁻¹ s⁻¹
same,Km,[20],24.2 ± 6.6 µM
same,kcat,[20],31.4 ± 3.2 s⁻¹
same,kcat/Km,[20],1.3e+06 ± 400000 M⁻¹ s⁻¹
"CN(Cc1cnc2nc(N)nc(N)c2n1)c1ccc(C(=O)N[C@@H](CCC(=O)O)C(=O)O)cc1 [Methotrexate, reference compound]",Ki,[10],579 ± 73.8 nM
